Laboratory results published in patent publication US11517512B2, “Personal care compositions comprising zinc : usnic acid complexes and methods of use” (Colgate-Palmolive Company, priority 2017, dated 2022).
≈ marks a conversion by molar mass, not a printed value.

Columns and labels:
Escherichia coli = experiment: Minimal inhibitory concentration, broth micro dilution method; assay type: cell-based; settings: overnight incubation, OD 610 nm, stock in DMSO, read-out: MIC E. Coli (G−)
Experimental: (§1) Minimal inhibition concentration (MIC) is the lowest concentration of an antimicrobial agent that can inhibit the visible growth of a microorganism after overnight incubation. The MIC values of zinc:usnate complex and usnic acid against Staphylococcus aureus and Escherichia coli were determined with the broth micro dilution method. Briefly, 0.1% stock solutions were prepared in dimethyl sulfoxide (DMSO). Using a 96-well microtitre plate, the corresponding testing concentrations are 500, 250, 125, 62, 31, 16, 8, 4, 2, 1, 0.5 and 0.2 ppm, respectively. The optic density readings at 610 nm for each well were used to assess the level of bacterial growth.

Staphylococcus aureus = experiment: as above; assay type: cell-based; settings: overnight incubation, OD 610 nm, stock in DMSO, read-out: MIC S. aureus (G+)
Experimental: as §1

[1] = DI water at 35° C.; Jin et al., J Solution Chem., 2013; cited from earlier work

CC(=O)c1c(O)c(C)c(O)c2c1OC1=CC(=O)C(C(C)=O)C(=O)C12C (stereo not drawn) [Usnic Acid, usnic acid]
MIC (Escherichia coli): > 125 µg/mL | MIC (Staphylococcus aureus): 4 µg/mL (≈ 11.6 µM) | solubility [1]: 6.3 ppm
